Test results published in the NIST ThermoML archive (doi:10.1016/j.tca.2006.04.001).

Settings: Liquid, Pycnometric method

CCCCCCCCCCCCCCCCCC [octadecane]
Settings	specific volume [m3/kg]
299.25 K	0.00129
301.35 K	0.001292
303.35 K	0.001295
305.45 K	0.001295
307.55 K	0.001298
309.55 K	0.001301
311.65 K	0.001301
313.65 K	0.001304
315.75 K	0.001308
317.75 K	0.001311
318.65 K	0.001318
319.85 K	0.001317
320.65 K	0.001319
323.55 K	0.001323
325.45 K	0.001324
328.35 K	0.00133
330.35 K	0.001331
333.25 K	0.001335
335.15 K	0.001337
338.05 K	0.001341
341.05 K	0.001345
342.95 K	0.001346
345.85 K	0.00135
347.85 K	0.001354
350.75 K	0.001357
352.65 K	0.00136
355.55 K	0.001363
357.55 K	0.001364
360.45 K	0.001368
362.35 K	0.001372
365.25 K	0.001375
367.25 K	0.001377
370.15 K	0.001382
372.05 K	0.001385
374.95 K	0.001388
376.95 K	0.001391
379.85 K	0.001395
381.75 K	0.001398
384.75 K	0.001402
386.65 K	0.001404
389.55 K	0.001409
391.55 K	0.001411
394.45 K	0.001416
396.35 K	0.001419
399.25 K	0.001423
401.25 K	0.001425
404.15 K	0.001429
406.05 K	0.001433
408.95 K	0.001437
410.95 K	0.00144
413.85 K	0.001444
415.75 K	0.001448
418.65 K	0.001451
420.65 K	0.001455
423.55 K	0.001459
425.45 K	0.001456
428.45 K	0.001464
430.35 K	0.001464
433.25 K	0.001474
435.25 K	0.001471
438.15 K	0.001482
440.05 K	0.001478
442.95 K	0.001488
444.95 K	0.001485
447.85 K	0.001496
449.75 K	0.001498
452.65 K	0.001502
454.65 K	0.001506
457.55 K	0.001512
459.45 K	0.001513
462.45 K	0.00152
464.35 K	0.001522
467.25 K	0.00153
469.15 K	0.001528
472.15 K	0.001538
474.05 K	0.001535
476.95 K	0.001546
478.95 K	0.001545
481.85 K	0.001557
483.75 K	0.001554
486.65 K	0.001564
488.65 K	0.001562
491.55 K	0.001573
493.45 K	0.001571
496.35 K	0.001577
498.35 K	0.001582
500.25 K	0.001587
503.15 K	0.001592
505.15 K	0.001595
508.05 K	0.001602
510.95 K	0.001609
512.95 K	0.00161
515.85 K	0.001619
518.75 K	0.001623
520.65 K	0.001628
523.55 K	0.001634
525.55 K	0.001639
527.45 K	0.001644
530.35 K	0.001649
533.25 K	0.001657
535.25 K	0.001659
538.15 K	0.001666
541.05 K	0.001675
543.05 K	0.001677
545.95 K	0.001685
548.85 K	0.001691
550.75 K	0.001697
553.65 K	0.001704
555.65 K	0.001706
558.55 K	0.001714
560.45 K	0.00172
563.45 K	0.00173
566.35 K	0.001737
568.25 K	0.001741
